# Measured values as given in patent publication US20250122222A1, “HETEROCYCLIC COMPOUNDS AND METHODS OF USE” (AMGEN INC., priority 2021, published 2025).
# Target: His-tagged KRAS G12D protein (Homo sapiens, UniProt P01116, G12D)
# Assay: KRAS G12D TR-FRET assay (binding)
# Details: biotinylated KRPep-2d substrate, GDP in assay buffer
# Chain of His-tagged KRAS G12D protein (P01116 1-188 isoform P01116-2 G12D): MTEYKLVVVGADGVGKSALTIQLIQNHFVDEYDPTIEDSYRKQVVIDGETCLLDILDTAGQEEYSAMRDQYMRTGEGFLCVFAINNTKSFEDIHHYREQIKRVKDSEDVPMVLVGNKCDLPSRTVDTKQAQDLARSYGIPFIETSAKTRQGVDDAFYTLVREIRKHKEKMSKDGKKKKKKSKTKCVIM
row,SMILES,IC50 [nM]
1,"CCc1c(F)ccc2cc(O)cc(-c3ncc4c(N5CCCOC(C(=O)NC)C5)nc(OC[C@@]56CCCN5C[C@H](F)C6)nc4c3F)c12 (single isomer, unassigned) [Example 43]",249
2,"CCc1c(F)ccc2cc(O)cc(-c3ncc4c(N5CCOCC(C(=O)NC)C5)nc(OC[C@@]56CCCN5C[C@H](F)C6)nc4c3F)c12 (single isomer, unassigned) [Example 44]",26
3,"CCc1c(F)ccc2cc(O)cc(-c3ncc4c(N5CCOCC(C(N)=O)C5)nc(OC[C@@]56CCCN5C[C@H](F)C6)nc4c3F)c12 (single isomer, unassigned) [Example 46]",17
4,"CCc1c(F)ccc2cc(O)cc(-c3ncc4c(N5CCCOCC5)nc(OCC5(C)CCC(=O)N5)nc4c3F)c12 (centres unmarked) [Example 30, 5-(((7-(8-ethyl-7-fluoro-3-hydroxynaphthalen-1-yl)-8-fluoro-4-(1,4-oxazepan-4-yl)pyrido[4,3-d]pyrimidin-2-yl)oxy)methyl)-5-methylpyrrolidin-2-one]",37
5,"CCc1c(F)ccc2cc(O)cc(-c3ncc4c(N5CCCOCC5)nc(OCC5(C#N)CCN(C)C5)nc4c3F)c12 (centres unmarked) [Example 33, 3-(((7-(8-ethyl-7-fluoro-3-hydroxynaphthalen-1-yl)-8-fluoro-4-(1,4-oxazepan-4-yl)pyrido[4,3-d]pyrimidin-2-yl)oxy)methyl)-1-methylpyrrolidine-3-carbonitrile]",27

# Now those with a lower IC50, led by results:
row,IC50 [nM],SMILES
1,14,"CCc1c(F)ccc2cc(O)cc(-c3ncc4c(N5CC6COCC(C5)C6O)nc(OC[C@@]56CCCN5C[C@H](F)C6)nc4c3F)c12 (stereo partly drawn) [Example 58, 7-(7-(8-Ethyl-7-fluoro-3-hydroxy-naphthalen-1-yl)-8-fluoro-2-(((2R,7aS)-2-fluorotetrahydro-1H-pyrrolizin-7a(5H)-yl)meth-oxy)pyrido[4,3-d]pyrimidin-4-yl)-3-oxa-7-azabicyclo [3.3.1]nonan-9-ol]"
2,11,"CCc1c(F)ccc2cc(O)cc(-c3ncc4c(N5CCCOCC5)nc(OCC5(C#N)CCNC5)nc4c3F)c12 (centres unmarked) [Example 31, 3-(((7-(8-ethyl-7-fluoro-3-hydroxynaphthalen-1-yl)-8-fluoro-4-(1,4-oxazepan-4-yl)pyrido[4,3-d]pyrimidin-2-yl)oxy)methyl) pyrrolidine-3-carbonitrile]"
3,7,"CCc1c(F)ccc2cc(O)cc(-c3ncc4c(N5CCOCC[C@H]5C)nc(OC[C@@]56CCCN5C[C@H](F)C6)nc4c3F)c12 [Example 54, 5-Ethyl-6-fluoro-4-(8-fluoro-2-(((2R,7aS)-2-fluorotetrahydro-1H-pyrrolizin-7a(5H)-yl)methoxy)-4-((R)-5-methyl-1,4-oxazepan-4-yl)pyrido[4,3-d]pyrimidin-7-yl)naphthalen-2-ol]"
4,7,"CCc1c(F)ccc2cc(O)cc(-c3ncc4c(N5CCOCC[C@@H]5C)nc(OC[C@@]56CCCN5C[C@H](F)C6)nc4c3F)c12 [Example 55, 5-Ethyl-6-fluoro-4-(8-fluoro-2-(((2R, 7aS)-2-fluorotetra-hydro-1H-pyrrol-izin-7a(5H)-yl)-methoxy)-4-((S)-5-methyl-1,4-oxazepan-4-yl)-pyrido[4,3-d]pyrimidin-7-yl)-naphthalen-2-ol]"
5,6,"CCc1c(F)ccc2cc(O)cc(-c3ncc4c(N5CCSC(CO)C5)nc(OC[C@@]56CCCN5C[C@H](F)C6)nc4c3F)c12 (stereo partly drawn) [Example 40, 5-Ethyl-6-fluoro-4-(8-fluoro-2-(((2R,7aS)-2-fluorotetrahydro-1H-pyrrolizin-7a(5H)-yl)methoxy)-4-(2-(hydroxymethyl)thiomorpholino)pyrido[4,3-d]pyrimidin-7-yl)naphthalen-2-ol]"
6,2,"CCc1c(F)ccc2cc(O)cc(-c3ncc4c(N5CCCOC(C(=O)NC)C5)nc(OC[C@@]56CCCN5C[C@H](F)C6)nc4c3F)c12 (single isomer, unassigned) [Example 42]"
